According to patent US10611748B2, “Xanthone derivatives for the treatment of hepatitis B virus disease” (Hoffmann-La Roche Inc., priority 2017, dated 2020):

Tests used:
[1] = tested on: extracellular HBeAg level (surrogate marker for cccDNA) in HepDES19 cells; test: HepDES19 primary screen assay; assay type: cell-based, HBV; details: Hepatitis B virus, 120 h, 5 days compound incubation, HBeAg ELISA
Method in brief: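 HepDES19 cells, Tet-withdrawn 8 days to induce pgRNA, then seeded 24 h before dosing with half-log compound dilutions (1% DMSO final) for 5 days at 37 °C. Extracellular HBeAg by ELISA, viability by CCK-8; IC50 from 4-parameter logistic fit.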

[2] = tested on: cccDNA level in HepDES19 cells; test: cccDNA Southern Blot assay; assay type: cell-based, HBV; details: 5 days' compound treatment, Hirt DNA, serial dilutions
Experimental: HepDES19 cells were seeded at 4×10^6 cells per T150 in the culture medium (Dulbecco's Modified Eagle Medium: Nutrient Mixture F-12 (DMEM:F12, Gibco Cat. 11320-82), 10% Fetal Bovine Serum (FBS, Clontech Cat. 631101), 0.1 mM Non-Essential Amino Acids Solution (NEAA, Gibco Cat. 11140-050), […] Penicillin-Streptomycin (PS, Invitrogen Cat. 15140-163), 500 μg/mL Geneticin (G418, Invitrogen Cat. 10131-027) in the absence of Tet for 8 days. These cells were seeded at the density of 1×10^6 cells per well in 6-well plate. At 24 hrs after seeding, serial dilutions of compounds made with DMSO (Sigma, Cat. D2650) were further diluted with the same culture medium as described above before they were added to the cells to reach desired final compound concentrations and 1% DMSO concentration. After 5 days' compound treatment, the cells growing in one well from 6-well plate were re-suspended with 500 μL re-suspension buffer (50 mM tris[hydroxymethyl]aminomethane pH 7.5), 10 mM ethylenediaminetetraacetic acid (EDTA), 50 μg/mL RNase A (Qiagen, Cat. 158922). 500 μL of 1.2% sodium dodecyl sulfate (SDS) was then added into the re-suspended cells to lyse the cells. After 15 minutes' incubation, 700 μL precipitation buffer (3M cesium chloride, 1M potassium acetate, 0.67M acetic acid) was added and the lysate was incubated at 4° C. for 2 h. The lysate was centrifuged at 15000 revolutions per minute (RPM) at 4° C. for 15 minutes. The supernatant was collected and loaded onto Qiagen miniprep columns (QIAprep spin Mini prep kit, Cat. No. 27016). After centrifugation for 1 minute at 15000 RPM, the column was washed once with 750 µL wash buffer PE from QIAprep spin Mini prep kit. 80 μL of double distilled water was loaded to the columns to elute Hirt DNA.
Hirt DNA of each sample was loaded into 1.2% lx tris-acetate electrophoresis (TAE) agarose gel and separated at 90 voltages for 3 hours. The gel was then treated in 50 mM NaAc—HAc, pH4.2 for 30 min at room temperature (RT), and then denatured by soaking in denaturation buffer (0.5 M sodium hydroxide, 1.5 M sodium chloride) at RT for 30-45 min. The gel was then treated with neutralization buffer (1M tris[hydroxymethyl]aminomethane pH7.4 and 1.5M NaCl) at RT for 30 to 45 min.
The gel was transferred onto a pre-wet Nylon membrane (GE life science, Hybond N+) by capillary transfer method overnight, followed by UV crosslinking. The membrane was transferred into a hybridization tube, then rinsed with double distilled water at 60° C. for 5 mins. 10 mL of hybridization buffer (Lab kits, China) was added, the resulting sample was rotated in hybridization oven at 60° C. for 1 hour. Digoxigenin (DIG)-labelled HBV probe (SEQ ID NO: 1) was denatured at 95° C. for 10 minutes, and then 7 μL of denatured probe was added to the hybridization tube, which was rotated in hybridization oven at 60° C. overnight.
On the second day, the membrane was washed according to the procedure of DIG wash and block buffer set kit (Roche, Cat. 11 585 762 001), and then incubated with 50 mL antibody solution (Antibody anti-Digoxigenin-AP Fab fragment (Roche Cat. 11093274910) diluted in fresh 1× blocking buffer at 1:10,000) for 1 hour. The membrane was washed with 50 mL washing buffer (1× Maleic buffer with 0.3% Tween-20) for 15 minutes twice, and equilibrated with 20 mL detection buffer (0.1M tris[hydroxymethyl]aminomethane pH9.5, 0.1M sodium chloride) for 5 minutes. CDP-Star substrate (Roche, Cat. 12041677001) was added to the membrane for 5 minutes, and then the membrane was scanned by Bio-Rad Visualize Image System (Biorad, ChemiDoc-MP, Serial No. 731BR00916).

Row | SMILES | IC50 [1] [nM] | cccDNA level in HepDES19 cells (Southern Blot) [2]
1 | O=C(O)C1CCN(c2ccc3c(=O)c4c(Cl)ccc(Cl)c4oc3c2)C1 (stereo not shown) [Example 26, 1-(5,8-dichloro-9-oxo-xanthen-3-yl)pyrrolidine-3-carboxylic Acid] | 2360 | dose-dependently reduced cccDNA level
2 | O=C(O)C1CCN(c2ccc3c(=O)c4cccc(Cl)c4oc3c2)C1 (stereo not shown) [Example 2, 1-(5-chloro-9-oxo-xanthen-3-yl)pyrrolidine-3-carboxylic acid] | 2180 | dose-dependently reduced cccDNA level
3 | O=C(O)C1CCN(c2ccc3c(=O)c4cccc(F)c4oc3c2)C1 (stereo not shown) [Example 5, 1-(5-fluoro-9-oxo-xanthen-3-yl)pyrrolidine-3-carboxylic acid] | 3330 | dose-dependently reduced cccDNA level
4 | O=C(O)[C@@H]1CCN(c2ccc3c(=O)c4cccc(Cl)c4oc3c2)C1 [Example 3, (3R)-1-(5-chloro-9-oxo-xanthen-3-yl)pyrrolidine-3-carboxylic acid] | 1240 | dose-dependently reduced cccDNA level
5 | O=C(O)[C@H]1CCN(c2ccc3c(=O)c4cccc(Cl)c4oc3c2)C1 [Example 4, (3S)-1-(5-chloro-9-oxo-xanthen-3-yl)pyrrolidine-3-carboxylic acid] | 2180 | dose-dependently reduced cccDNA level
